These results are taken from patent publication US7517517B2 (Janssen Pharmaceutica N.V., priority 2002, dated 2009).

Test [1] concerns the target T1, rat mGlu1a receptor (Rattus norvegicus, UniProt P23385).
T1 construct: host or cells: CHO-dhfr- cells
Nature of the test: Intracellular Ca2+ response in rat mGlu1a receptor expressing CHO-dhfr− cells (FLIPR). The format is cell-based. Conditions: CHO-dhfr− cells expressing rat mGlu1a; glutamate 30 μM; read-out: IC50, inhibition of the glutamate-induced increase in [Ca2+]i.

Test [2] concerns the target T1, rat mGlu1a receptor. Nature of the test: [3H]Compound A binding to rat mGlu1a receptor CHO-dhfr− membranes (saturation, kinetics, inhibition).
In test [3] the target is T1, rat mGlu1a receptor. Nature of the test: [3H]quisqualate binding to rat mGlu1a receptor CHO-dhfr− membranes (saturation, inhibition). Particulars: rat mGlu1a receptor CHO-dhfr− membranes.
In test [4] the target is T2, mGlu1 receptor (Rattus norvegicus, UniProt P23385). Nature of the test: [3H]Compound A binding to rat brain membranes (cortex, hippocampus, striatum, cerebellum). Conditions: 10 μM; 2.5 nM [3H]Compound A (FIG. 9). The method, then: Tissue preparation. Male Wistar rats (˜200 g) were sacrificed by decapitation. The brains were rapidly removed and cortex, hippocampus, striatum and cerebellum were immediately dissected. The fresh tissue was homogenized with an Ultra Turrax in 20 volumes of 50 mM Tris-HCl, pH 7.4 and tissue was centrifuged at 23,500 g for 10 min. After homogenisation using a DUAL homogeniser, membranes were washed twice by centrifugation at 23,500 g for 10 min. The final pellet was suspended in 10 volumes of 50 mM Tris-HCl, pH 7.4 and frozen at −80° C.
In vitro binding assay. After thawing, membranes from rat cortex, cerebellum, striatum and hippocampus were rehomogenized using a DUAL and suspended in ice-cold binding buffer containing 50 mM Tris-HCl, 1.2 mM MgCl2, 2 mM CaCl2, pH 7.4. The binding assay was carried out in a total volume of 0.5 ml containing 2.5 nM [^3H]Compound A and a membrane aliquot corresponding to 40 μg for cerebellar membranes, 60 μg for hippocampal membranes, 80 μg for striatal membranes or 150 μg for cortical membranes. […] After incubation for 30 min at 4° C., the labelled membranes were washed and harvested by rapid vacuum filtration over Whatman GF/C glass-fibre filters using a 40-well filtration manifold and radioactivity collected on the filters was counted as above.
Data analysis was performed using the GraphPad Prism program (GraphPad Prism Software, Inc., San Diego, Calif.). Saturation binding experiments were analysed using a non-linear regression analysis. Inhibition curves were fitted using non-linear regression analysis fitting the one-site competition equation: Y=Bottom+((Top−Bottom)/1+10^X-LogIC50). Ki values were calculated using the Cheng-Prusoff equation: Ki=IC50/[1+([C]/KD)] where C is the concentration of radioligand and KD is the dissociation constant of the radioligand (Cheng and Prusoff, Biochem. Pharmacol. 22, 3099-3108, 1973). The observed on (kob) and off (koff) rate were calculated from association-dissociation curves using the one-phase-exponential association and decay equations in the Prism program, respectively. kon was calculated by subtracting koff from kob and dividing by the radioligand concentration. The two-tailed Student's t-test was used for statistical evaluation of the binding data: * p<0.05, ** p<0.01 and *** p<0.001. The Dunnett's t-test following a 2-way analysis of variance (with as factors compound concentration and experiment) were used to analyse the data from the IP experiments.

Test [5] deals with T2, mGlu1 receptor. The test is described as follows: [3H]Compound A binding and autoradiography on rat brain sections. Conditions: 10 μM (FIG. 10, panel C). The method, then:
Tissue preparation. Male Wistar rats (200 g) were sacrificed by decapitation. Brains were immediately removed from the skull and were rapidly frozen in dry-ice-cooled 2-methylbutane (−40° C.). Brains were then stored at −70° C. until sectioning. Twenty-micrometer-thick sagittal sections were cut using a Leica C3050 cryostat microtome (Leica Microsystems, Wetzlar, Germany) and thaw-mounted on SuperFrost Plus microscope slides (Menzle-glaser, Germany). The sections were then kept at −70° C. until use.
Receptor autoradiography. Sections were thawed and dried under a stream of cold air, preincubated (3×5 min) in 50 mM Tris-HCl, 1.2 mM MgCl2, 2 mM CaCl2, 0.1% BSA pH 7.4 at room temperature. […] After the incubation, the excess of radioligand was washed off (3×5 min) in ice-cold buffer containing 50 mM Tris-HCl, 1.2 mM MgCl2 and 2 mM CaCl2, followed by a rapid dip in cold distilled water. The sections were dried under a stream of cold air and then exposed to [^3H]Hyperfilm (Amersham, UK) for 6 weeks at room temperature. The films were developed manually in Kodak D19 and fixed with Kodak Readymatic. Some sections were exposed to a Fuji Imaging Plate for 2 days at room temperature and scanned using a Fujix Bass 2000 phosphoimager.

For test [6], the system named is mGlu1 receptor. Conditions: literature; cited from earlier work.

T1 sequence (P23385 19-1199): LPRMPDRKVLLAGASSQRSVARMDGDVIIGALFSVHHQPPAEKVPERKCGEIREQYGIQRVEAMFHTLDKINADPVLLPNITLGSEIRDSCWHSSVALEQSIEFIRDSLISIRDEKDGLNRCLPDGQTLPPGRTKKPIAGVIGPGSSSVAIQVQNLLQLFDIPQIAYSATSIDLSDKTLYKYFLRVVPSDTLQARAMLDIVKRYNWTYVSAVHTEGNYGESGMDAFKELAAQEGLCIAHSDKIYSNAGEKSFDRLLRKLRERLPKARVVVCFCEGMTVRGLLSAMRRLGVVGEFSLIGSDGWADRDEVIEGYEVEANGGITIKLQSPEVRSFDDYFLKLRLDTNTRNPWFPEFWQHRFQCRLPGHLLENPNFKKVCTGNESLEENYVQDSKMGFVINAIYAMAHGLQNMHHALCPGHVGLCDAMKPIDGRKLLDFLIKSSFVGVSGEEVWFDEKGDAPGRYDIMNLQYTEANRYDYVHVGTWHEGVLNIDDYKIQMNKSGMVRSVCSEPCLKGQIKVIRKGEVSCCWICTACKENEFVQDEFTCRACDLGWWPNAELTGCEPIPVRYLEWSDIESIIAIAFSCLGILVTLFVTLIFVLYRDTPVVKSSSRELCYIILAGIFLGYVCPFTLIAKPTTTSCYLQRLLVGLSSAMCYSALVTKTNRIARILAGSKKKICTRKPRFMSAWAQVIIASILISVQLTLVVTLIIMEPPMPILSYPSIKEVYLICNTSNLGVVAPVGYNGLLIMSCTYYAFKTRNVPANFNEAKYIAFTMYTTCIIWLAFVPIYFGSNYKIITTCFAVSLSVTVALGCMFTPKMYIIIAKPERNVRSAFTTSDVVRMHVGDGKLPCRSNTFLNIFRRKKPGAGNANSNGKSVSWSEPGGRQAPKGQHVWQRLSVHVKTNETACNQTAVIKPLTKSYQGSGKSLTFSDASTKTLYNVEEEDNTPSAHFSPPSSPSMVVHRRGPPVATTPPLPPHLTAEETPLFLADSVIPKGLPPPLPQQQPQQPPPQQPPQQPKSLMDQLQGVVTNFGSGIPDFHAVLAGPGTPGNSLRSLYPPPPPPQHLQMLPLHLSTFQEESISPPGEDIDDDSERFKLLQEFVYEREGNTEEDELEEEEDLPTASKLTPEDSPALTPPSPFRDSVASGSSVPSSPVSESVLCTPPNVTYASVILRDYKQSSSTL

As to `C=C1C[C@@H]2COC(=O)[C@]2(Cc2ccc3ccccc3c2)C1` [BAY 36-7620, reference compound], the IC50 in test [1] came out at 0.161 ± 0.038 µM. For the same compound, the Ki in test [2] (2.5 nM [3H]Compound A, 30 min at 4° C., mean ± SD of 3–4 experiments) was 11.2 ± 0.93 nM; in test [3] (inhibition of [3H]quisqualate binding, mean ± SD of 2 experiments), above 1000 µM. This compound also returned a Hill coefficient in test [2] (inhibition of [3H]Compound A-binding, mean ± SD of 3–4 experiments) of 0.95 ± 0.02. In addition, the “inhibition of [3H]Compound A binding (in words)” value in test [2] (rat mGlu1a receptor CHO-dhfr− membranes) was “nanomolar concentrations”. Also, the “effect on [3H]quisqualate binding (in words)” value in test [3] was “did not affect”. The “inhibition of [3H]Compound A binding to rat cerebellar membranes” value in test [4] is “maximally inhibited”. Besides, the “inhibition of [3H]Compound A binding to rat brain sections” value in test [5] is recorded as “completely inhibited”. Besides, the “potency of mGlu1 receptor block” value in test [6] is 0.16 µM.

The IC50 is the point on the concentration scale where inhibition reaches its midpoint. By Ki is commonly meant the dissociation constant of the complex between target and ligand, obtained from inhibition or displacement. Low values mean tighter binding, high ones weaker binding. One may read the Hill coefficient as the slope factor of the fitted curve.
